Reference: the supplement of paper PMC10307832

Tests used:
Test in all cases: relative viability (nuclei count vs DMSO), 5 days (fraction); higher = more cells survive
FG-4592 + Foretinib = compound: Cc1nc(C(=O)NCC(=O)O)c(O)c2ccc(Oc3ccccc3)cc12 [FG-4592] + COc1cc2c(Oc3ccc(NC(=O)C4(C(=O)Nc5ccc(F)cc5)CC4)cc3F)ccnc2cc1OCCCN1CCOCC1 [Foretinib] (partner 0.25 µM)
Outline: (§1)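 Nuclei were stained with Hoechst during a one-step fixation (final 0.05% Triton X-100, 1% formaldehyde, 1 ug/ml Hoechst) carried out 5 days after dosing, then counted on 4× images. The cells, lung cancer lines in 1536-well plates, had been dosed by pin tool the day after seeding with one drug alone or a fixed anchor-drug dose plus five library-drug doses (not always all listed) in √10 steps. Relative viability is the nuclei count in treated wells divided by that in vehicle wells, and each value is the median of duplicate plates.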

IU1-47 + Alpelisib = compound: CC1=CC(=C(N1C2=CC=C(C=C2)Cl)C)C(=O)CN3CCCCC3 [IU1-47] + Cc1nc(NC(=O)N2CCC[C@H]2C(N)=O)sc1-c1ccnc(C(C)(C)C(F)(F)F)c1 [Alpelisib] (partner 2 µM)
Outline: as §1

IU1-47 + Dasatinib = compound: CC1=CC(=C(N1C2=CC=C(C=C2)Cl)C)C(=O)CN3CCCCC3 [IU1-47] + Cc1nc(Nc2ncc(C(=O)Nc3c(C)cccc3Cl)s2)cc(N2CCN(CCO)CC2)n1 [Dasatinib] (partner 0.075 µM)
Outline: as §1

FG-4592 + Crizotinib = compound: Cc1nc(C(=O)NCC(=O)O)c(O)c2ccc(Oc3ccccc3)cc12 [FG-4592] + C[C@@H](Oc1cc(-c2cnn(C3CCNCC3)c2)cnc1N)c1c(Cl)ccc(F)c1Cl [Crizotinib] (partner 1 µM)
Outline: as §1

| Cell Line | relative viability (FG-4592 + Foretinib; first compound 0.08 µM) | relative viability (FG-4592 + Foretinib; first compound 0.253 µM) | relative viability (FG-4592 + Foretinib; first compound 0.8 µM) | relative viability (FG-4592 + Foretinib; first compound 2.53 µM) | relative viability (FG-4592 + Foretinib; first compound 8 µM) | relative viability (IU1-47 + Alpelisib; first compound 0.08 µM) | relative viability (IU1-47 + Alpelisib; first compound 0.253 µM) | relative viability (IU1-47 + Alpelisib; first compound 0.8 µM) | relative viability (IU1-47 + Alpelisib; first compound 2.53 µM) | relative viability (IU1-47 + Alpelisib; first compound 8 µM) | relative viability (IU1-47 + Dasatinib; first compound 0.08 µM) | relative viability (IU1-47 + Dasatinib; first compound 0.253 µM) | relative viability (IU1-47 + Dasatinib; first compound 0.8 µM) | relative viability (IU1-47 + Dasatinib; first compound 2.53 µM) | relative viability (IU1-47 + Dasatinib; first compound 8 µM) | relative viability (FG-4592 + Crizotinib; first compound 0.08 µM) | relative viability (FG-4592 + Crizotinib; first compound 0.253 µM) | relative viability (FG-4592 + Crizotinib; first compound 0.8 µM) | relative viability (FG-4592 + Crizotinib; first compound 2.53 µM) | relative viability (FG-4592 + Crizotinib; first compound 8 µM) |
| --- | --- | --- | --- | --- | --- | --- | --- | --- | --- | --- | --- | --- | --- | --- | --- | --- | --- | --- | --- | --- |
| NCI-H1563 | 0.995 | 0.961 | 0.866 | 1.01 | 0.82 | 0.909 | 0.87 | 0.871 | 0.942 | 0.816 | 0.532 | 0.481 | 0.429 | 0.462 | 0.447 | 0.893 | 0.888 | 0.91 | 0.889 | 0.804 |
| NCI-H1651 | 0.863 | 0.773 | 0.88 | 0.901 | 0.839 | 1.05 | 1.1 | 0.899 |  | 0.597 | 0.325 | 0.412 | 0.454 | 0.414 | 0.39 | 0.89 | 0.799 | 0.829 | 0.863 | 0.862 |
| NCI-H1666 | 0.907 | 0.865 | 0.939 | 0.963 | 0.837 | 0.882 | 0.903 | 0.812 | 1.03 | 0.836 | 0.79 | 0.806 | 0.761 | 0.793 | 0.676 | 0.993 | 0.903 | 0.829 | 0.944 | 0.728 |
| NCI-H1734 | 0.792 | 0.812 | 0.806 | 0.884 | 0.75 | 0.645 | 0.714 | 0.65 |  | 0.708 | 0.493 | 0.531 | 0.461 |  | 0.406 | 0.638 | 0.711 | 0.674 | 0.595 | 0.643 |
| NCI-H1755 | 0.907 | 0.905 | 0.857 | 0.929 | 0.921 | 1.04 | 1.03 | 1.03 | 0.978 | 0.8 | 0.455 | 0.528 | 0.426 | 0.409 | 0.36 | 0.77 | 0.875 | 0.864 | 0.941 | 0.916 |
| NCI-H1915 | 1.09 | 1.06 | 1.22 | 1.12 | 1 | 1.07 | 1.11 | 1.13 |  | 1.07 | 0.318 | 0.3 | 0.334 |  | 0.306 | 0.87 | 0.883 | 0.922 | 0.874 | 0.905 |
| NCI-H1944 | 0.928 | 0.816 | 0.941 | 0.85 | 0.934 | 0.853 | 0.886 | 0.903 |  | 0.847 | 0.213 | 0.214 | 0.204 | 0.2 | 0.203 | 1.05 | 1.1 | 1.13 | 1.17 | 1.05 |
| NCI-H1975 | 0.986 | 0.949 | 1.07 | 0.956 | 0.833 | 0.684 | 0.619 | 0.708 | 0.659 | 0.444 | 0.329 | 0.343 | 0.372 | 0.318 | 0.361 | 0.921 | 0.892 | 1.11 | 0.991 | 0.897 |
| NCI-H1993 | 0.783 | 0.582 | 0.781 | 0.828 | 0.747 | 0.753 | 0.728 | 0.657 | 0.725 | 0.594 | 0.497 | 0.732 | 0.651 | 0.548 | 0.571 | 0.969 | 0.873 | 0.919 | 0.834 | 0.828 |
| NCI-H2009 | 1.21 | 1.11 | 1.13 | 1.14 | 1.11 | 1.24 | 1.18 | 1.13 | 1.18 | 1.21 | 0.257 | 0.263 | 0.293 | 0.231 | 0.241 | 1.14 | 0.967 | 1.01 | 0.953 | 0.98 |
| NCI-H2023 | 0.792 | 0.79 | 0.885 | 0.854 | 0.742 | 0.6 | 0.531 | 0.511 | 0.627 | 0.519 | 0.564 | 0.521 | 0.657 | 0.347 | 0.55 | 0.609 | 0.66 | 0.703 | 0.768 | 0.544 |
| NCI-H2085 | 0.837 | 0.696 | 0.927 | 0.784 | 0.881 | 1.04 | 0.973 | 1.02 | 0.975 | 0.856 | 0.218 | 0.269 | 0.242 | 0.228 | 0.252 | 0.852 | 0.871 | 0.928 | 1.03 | 0.742 |
| NCI-H2087 | 1.19 | 1.02 | 1.21 | 1.07 | 1.11 | 1.23 | 1.01 | 1.15 | 1.21 | 0.909 | 0.963 | 0.973 | 1.12 |  | 0.681 | 0.722 | 0.648 | 1.01 | 0.997 | 0.896 |
| NCI-H2126 | 1.14 | 1.13 | 1.16 | 1.09 | 1.15 | 0.759 | 0.814 | 0.78 | 0.55 | 0.707 | 0.596 | 0.717 | 0.724 |  | 0.601 | 0.989 | 1.01 | 1.04 | 1 | 1.03 |
| NCI-H2170 | 1.01 | 0.962 | 1.03 | 1.04 | 0.915 | 0.905 | 0.799 | 0.84 | 0.777 | 0.772 | 0.601 | 0.737 | 0.558 | 0.526 | 0.497 | 1.16 | 1.14 | 1.24 | 1.22 | 0.909 |
| NCI-H2228 | 0.672 | 0.744 | 0.945 | 0.854 | 0.717 | 0.904 | 1.06 | 0.687 | 0.796 | 0.451 | 0.625 | 0.581 | 0.471 | 0.363 | 0.43 | 0.592 | 0.279 | 0.522 | 0.437 | 0.554 |
| NCI-H2347 |  | 0.618 | 0.885 | 0.857 | 1.04 | 0.958 | 1.05 | 1.11 | 1.05 | 1.11 | 0.307 | 0.307 | 0.318 | 0.285 | 0.342 | 0.668 |  | 0.58 | 0.724 | 0.874 |
| NCI-H2405 | 0.962 |  | 1.03 | 1.02 | 1.14 | 0.795 | 0.761 | 0.749 |  | 0.768 | 0.21 | 0.234 | 0.208 | 0.206 | 0.208 | 0.665 | 0.657 | 0.878 | 0.857 | 0.87 |
| NCI-H3122 | 0.957 | 0.952 | 0.934 | 0.993 | 0.921 | 0.82 | 1.02 | 0.97 | 0.967 | 0.724 |  | 0.816 | 0.854 | 0.892 | 1.01 | 0.277 | 0.271 | 0.26 | 0.3 | 0.255 |
| PC-3 [JPC-3] | 1.09 | 0.937 | 1.06 | 1.04 | 1.02 | 1.08 | 0.982 | 1.04 |  | 1.01 | 1.01 | 1.02 | 0.982 | 0.956 | 0.788 | 1 | 0.905 | 1.12 | 0.98 | 0.988 |
| PC-14 | 1.09 | 0.997 | 1 | 0.965 | 0.987 | 1.03 | 0.987 | 1.12 | 1.02 | 0.782 | 0.223 | 0.257 | 0.209 | 0.226 | 0.205 | 0.893 | 0.863 | 1.02 | 0.961 | 0.922 |
| RERF-LC-KJ | 0.853 | 0.868 | 0.817 | 0.888 | 0.771 | 0.785 | 0.946 | 0.775 | 0.869 | 0.76 | 0.926 | 0.947 | 0.817 | 0.877 | 0.781 | 0.798 | 0.8 | 0.849 | 0.837 | 0.771 |
| SK-LU-1 | 0.866 | 0.646 | 0.767 | 0.881 | 0.631 | 0.8 | 1.22 | 0.943 | 1.31 | 0.807 | 0.208 | 0.187 | 0.182 | 0.18 | 0.159 | 0.806 | 0.731 | 0.912 |  | 0.968 |
| SK-MES-1 | 1.09 | 0.724 | 0.779 | 0.934 | 0.836 | 0.885 | 0.998 | 1.03 | 0.859 | 0.922 | 0.376 | 0.467 | 0.335 | 0.405 | 0.315 | 0.913 | 0.854 | 1 | 1.03 | 1 |
| SW 1573 | 0.913 | 0.978 | 0.884 | 0.987 | 0.963 | 0.905 | 0.758 | 0.664 | 0.756 | 0.839 | 0.498 | 0.524 | 0.584 | 0.551 | 0.577 | 0.664 | 0.7 | 0.71 | 1 | 0.632 |
